Test results as given in ChEMBL document CHEMBL3885881, “DrugMatrix”.

Species: Rattus norvegicus
Test: DrugMatrix - Regimen: Daily Repeat
Assay type: toxicity, organism-based, Sprague-Dawley
Design: regimen Daily Repeat, gender Male, age 6-8 weeks
Details: in vivo, po, route oral GAVAGE, vehicle 100 % SALINE; for ABSOLUTE BASOPHIL / ABSOLUTE EOSINOPHIL / ABSOLUTE LYMPHOCYTE / ABSOLUTE MONOCYTE / ABSOLUTE SEGMENTED NEUTROPHIL / BASOPHIL / EOSINOPHIL / ERYTHROCYTE COUNT / HEMATOCRIT / HEMOGLOBIN / LEUKOCYTE COUNT / LYMPHOCYTE / MEAN CORPUSCULAR HEMOGLOBIN / MEAN CORPUSCULAR HEMOGLOBIN CONCENTRATION / MEAN CORPUSCULAR VOLUME / MONOCYTE / NEUTROPHIL / NUCLEATED RED BLOOD CELLS / PLATELET COUNT: tissue Blood; for ALANINE AMINOTRANSFERASE / ALBUMIN / ALKALINE PHOSPHATASE / ASPARTATE AMINOTRANSFERASE / BLOOD UREA NITROGEN / CARBON DIOXIDE / CHLORIDE / CHOLESTEROL / CREATINE PHOSPHOKINASE / CREATININE / GLUCOSE / LACTATE DEHYDROGENASE / LIPASE / PHOSPHORUS / POTASSIUM / SODIUM / TOTAL BILIRUBIN / TOTAL PROTEIN / URIC ACID: tissue Plasma
[1] = 0 mg/kg, 72 h, dose level Control, time 3 day
[2] = 0 mg/kg, 120 h, dose level Control, time 5 day
[3] = 17.5 mg/kg, 72 h, dose level Low, time 3 day
[4] = 17.5 mg/kg, 120 h, dose level Low, time 5 day

For `NC(=O)C[S+]([O-])C(c1ccccc1)c1ccccc1` (configuration not stated) [MODAFINIL], the “ABSOLUTE BASOPHIL” value [1] was 0 CELLS/uL, the “ABSOLUTE EOSINOPHIL” value [1] was 37 CELLS/uL and the “ABSOLUTE LYMPHOCYTE” value [1] was 12359.33 CELLS/uL. For the same compound, the “ABSOLUTE MONOCYTE” value [1] was 122.67 CELLS/uL, the “ABSOLUTE SEGMENTED NEUTROPHIL” value [1] was 847.67 CELLS/uL and the BASOPHIL [1] was 0%. The EOSINOPHIL [1] was 0.33%, the “ERYTHROCYTE COUNT” value [1] was 5.75 x10E6/uL and the HEMATOCRIT [1] was 36.08%. For the same compound, the HEMOGLOBIN [1] was 14.07 G/DL, the “LEUKOCYTE COUNT” value [1] was 13.37 x10E3/uL and the LYMPHOCYTE [1] was 92.5%. For the same compound, the “MEAN CORPUSCULAR HEMOGLOBIN” value [1] was 24.47 pg, the “MEAN CORPUSCULAR HEMOGLOBIN CONCENTRATION” value [1] was 38.98 G/DL and the “MEAN CORPUSCULAR VOLUME” value [1] was 62.78 fL. The MONOCYTE [1] was 1%, the NEUTROPHIL [1] was 6.17% and the “NUCLEATED RED BLOOD CELLS” value [1] was 0.17 /100WBC. The “PLATELET COUNT” value [1] was 1202.17 x10E3/uL, the “ALANINE AMINOTRANSFERASE” value [1] was 50.67 u/L and the ALBUMIN [1] was 4.13 G/DL. The “ALKALINE PHOSPHATASE” value [1] was 356.33 u/L, the “ASPARTATE AMINOTRANSFERASE” value [1] was 78.17 u/L and the “BLOOD UREA NITROGEN” value [1] was 14.17 mg/dL. For the same compound, the “CARBON DIOXIDE” value [1] was 31.33 mmol/L, the CHLORIDE [1] was 98.5 MEQ/L and the CHOLESTEROL [1] was 76.5 mg/dL. For the same compound, the “CREATINE PHOSPHOKINASE” value [1] was 248.33 u/L, the CREATININE [1] was 0.2 mg/dL and the GLUCOSE [1] was 144 mg/dL. For the same compound, the “LACTATE DEHYDROGENASE” value [1] was 107 u/L, the LIPASE [1] was 9.83 u/L and the PHOSPHORUS [1] was 12.8 mg/dL. The POTASSIUM [1] was 6.75 MEQ/L, the SODIUM [1] was 142 MEQ/L and the “TOTAL BILIRUBIN” value [1] was 0.18 mg/dL. The “TOTAL PROTEIN” value [1] was 5.98 G/DL, the “URIC ACID” value [1] was 1.42 mg/dL and the “ABSOLUTE BASOPHIL” value [2] was 0 CELLS/uL. The “ABSOLUTE EOSINOPHIL” value [2] was 0 CELLS/uL, the “ABSOLUTE LYMPHOCYTE” value [2] was 8681.17 CELLS/uL and the “ABSOLUTE MONOCYTE” value [2] was 79.83 CELLS/uL. The “ABSOLUTE SEGMENTED NEUTROPHIL” value [2] was 689 CELLS/uL, the BASOPHIL [2] was 0% and the EOSINOPHIL [2] was 0%. For the same compound, the “ERYTHROCYTE COUNT” value [2] was 5.49 x10E6/uL, the HEMATOCRIT [2] was 33.55% and the HEMOGLOBIN [2] was 13.1 G/DL. The “LEUKOCYTE COUNT” value [2] was 9.45 x10E3/uL, the LYMPHOCYTE [2] was 92.33% and the “MEAN CORPUSCULAR HEMOGLOBIN” value [2] was 23.92 pg. For the same compound, the “MEAN CORPUSCULAR HEMOGLOBIN CONCENTRATION” value [2] was 39.07 G/DL, the “MEAN CORPUSCULAR VOLUME” value [2] was 61.22 fL and the MONOCYTE [2] was 0.67%. The NEUTROPHIL [2] was 7%, the “NUCLEATED RED BLOOD CELLS” value [2] was 0.17 /100WBC and the “PLATELET COUNT” value [2] was 1001.17 x10E3/uL. For the same compound, the “ALANINE AMINOTRANSFERASE” value [2] was 49.33 u/L, the ALBUMIN [2] was 4.07 G/DL and the “ALKALINE PHOSPHATASE” value [2] was 300.33 u/L. For the same compound, the “ASPARTATE AMINOTRANSFERASE” value [2] was 83.5 u/L, the “BLOOD UREA NITROGEN” value [2] was 16 mg/dL and the “CARBON DIOXIDE” value [2] was 29.67 mmol/L. For the same compound, the CHLORIDE [2] was 100.5 MEQ/L, the CHOLESTEROL [2] was 74.33 mg/dL and the “CREATINE PHOSPHOKINASE” value [2] was 489.67 u/L. The CREATININE [2] was 0.35 mg/dL, the GLUCOSE [2] was 151 mg/dL and the “LACTATE DEHYDROGENASE” value [2] was 133.67 u/L. It also gave an LIPASE [2] of 11.17 u/L, a PHOSPHORUS [2] of 10.88 mg/dL and a POTASSIUM [2] of 5.5 MEQ/L. The SODIUM [2] was 145.7 MEQ/L, the “TOTAL BILIRUBIN” value [2] was 0.2 mg/dL and the “TOTAL PROTEIN” value [2] was 6.05 G/DL. For the same compound, the “URIC ACID” value [2] was 0.68 mg/dL, the “ABSOLUTE BASOPHIL” value [3] was 0 CELLS/uL and the “ABSOLUTE EOSINOPHIL” value [3] was 0 CELLS/uL. The “ABSOLUTE LYMPHOCYTE” value [3] was 8269.33 CELLS/uL, the “ABSOLUTE MONOCYTE” value [3] was 22 CELLS/uL and the “ABSOLUTE SEGMENTED NEUTROPHIL” value [3] was 608.67 CELLS/uL. The BASOPHIL [3] was 0%, the EOSINOPHIL [3] was 0% and the “ERYTHROCYTE COUNT” value [3] was 5.35 x10E6/uL. For the same compound, the HEMATOCRIT [3] was 32.93%, the HEMOGLOBIN [3] was 12.87 G/DL and the “LEUKOCYTE COUNT” value [3] was 8.9 x10E3/uL. The LYMPHOCYTE [3] was 93%, the “MEAN CORPUSCULAR HEMOGLOBIN” value [3] was 24.07 pg and the “MEAN CORPUSCULAR HEMOGLOBIN CONCENTRATION” value [3] was 39.03 G/DL. For the same compound, the “MEAN CORPUSCULAR VOLUME” value [3] was 61.67 fL, the MONOCYTE [3] was 0.33% and the NEUTROPHIL [3] was 6.67%. The “NUCLEATED RED BLOOD CELLS” value [3] was 0 /100WBC, the “PLATELET COUNT” value [3] was 1018.67 x10E3/uL and the “ALANINE AMINOTRANSFERASE” value [3] was 51.33 u/L. The ALBUMIN [3] was 4.2 G/DL, the “ALKALINE PHOSPHATASE” value [3] was 290.33 u/L and the “ASPARTATE AMINOTRANSFERASE” value [3] was 79.67 u/L. The “BLOOD UREA NITROGEN” value [3] was 14 mg/dL, the “CARBON DIOXIDE” value [3] was 27.67 mmol/L and the CHLORIDE [3] was 100.33 MEQ/L. For the same compound, the CHOLESTEROL [3] was 66 mg/dL, the “CREATINE PHOSPHOKINASE” value [3] was 304.67 u/L and the CREATININE [3] was 0.22 mg/dL. The GLUCOSE [3] was 157.67 mg/dL, the “LACTATE DEHYDROGENASE” value [3] was 92.67 u/L and the LIPASE [3] was 11 u/L. For the same compound, the PHOSPHORUS [3] was 11.77 mg/dL, the POTASSIUM [3] was 5.21 MEQ/L and the SODIUM [3] was 144.33 MEQ/L. For the same compound, the “TOTAL BILIRUBIN” value [3] was 0.17 mg/dL, the “TOTAL PROTEIN” value [3] was 5.93 G/DL and the “URIC ACID” value [3] was 0.7 mg/dL. The “ABSOLUTE BASOPHIL” value [4] was 0 CELLS/uL, the “ABSOLUTE EOSINOPHIL” value [4] was 0 CELLS/uL and the “ABSOLUTE LYMPHOCYTE” value [4] was 7020.33 CELLS/uL. For the same compound, the “ABSOLUTE MONOCYTE” value [4] was 0 CELLS/uL, the “ABSOLUTE SEGMENTED NEUTROPHIL” value [4] was 813 CELLS/uL and the BASOPHIL [4] was 0%. For the same compound, the EOSINOPHIL [4] was 0%, the “ERYTHROCYTE COUNT” value [4] was 5.19 x10E6/uL and the HEMATOCRIT [4] was 32.03%. For the same compound, the HEMOGLOBIN [4] was 12.9 G/DL, the “LEUKOCYTE COUNT” value [4] was 7.83 x10E3/uL and the LYMPHOCYTE [4] was 90%. For the same compound, the “MEAN CORPUSCULAR HEMOGLOBIN” value [4] was 24.93 pg, the “MEAN CORPUSCULAR HEMOGLOBIN CONCENTRATION” value [4] was 40.27 G/DL and the “MEAN CORPUSCULAR VOLUME” value [4] was 61.83 fL. For the same compound, the MONOCYTE [4] was 0%, the NEUTROPHIL [4] was 10% and the “NUCLEATED RED BLOOD CELLS” value [4] was 0 /100WBC. For the same compound, the “PLATELET COUNT” value [4] was 1105.67 x10E3/uL, the “ALANINE AMINOTRANSFERASE” value [4] was 54.33 u/L and the ALBUMIN [4] was 4.27 G/DL. The “ALKALINE PHOSPHATASE” value [4] was 413 u/L, the “ASPARTATE AMINOTRANSFERASE” value [4] was 84 u/L and the “BLOOD UREA NITROGEN” value [4] was 11 mg/dL. The “CARBON DIOXIDE” value [4] was 33.67 mmol/L, the CHLORIDE [4] was 98.33 MEQ/L and the CHOLESTEROL [4] was 73 mg/dL. For the same compound, the “CREATINE PHOSPHOKINASE” value [4] was 441.67 u/L, the CREATININE [4] was 0.39 mg/dL and the GLUCOSE [4] was 133 mg/dL. For the same compound, the “LACTATE DEHYDROGENASE” value [4] was 119.33 u/L, the LIPASE [4] was 10.67 u/L and the PHOSPHORUS [4] was 10.57 mg/dL. The POTASSIUM [4] was 6.11 MEQ/L, the SODIUM [4] was 143.73 MEQ/L and the “TOTAL BILIRUBIN” value [4] was 0.13 mg/dL. The “TOTAL PROTEIN” value [4] was 6.13 G/DL and the “URIC ACID” value [4] was 0.7 mg/dL.
